Columns and labels:
Ct-hMLKL (183–471) = target: T1, Ct-hMLKL (183–471) (Homo sapiens, UniProt Q8NB16); assay: SPR binding to Ct-hMLKL; settings: CM5 chip
T1 construct: Nt-hMLKL (2–154), Nt-mMLKL (1–180), and Ct-hMLKL (183–471) were generated using the pBT7-N-His vector; His (N); made in house; host or cells: E. coli BL21
Source text: The hMLKL plasmid (RC213152, OriGene, Rockville, MD, USA), and recombinant Wt-hMLKL (ab241453, Abcam) and Wt-mMLKL (MBS1379843, MyBioSource, San Diego, CA, USA) proteins were purchased. Nt-hMLKL (2–154), Nt-mMLKL (1–180), and Ct-hMLKL (183–471) were generated using the pBT7-N-His vector. Nt-hMLKL^C86A, Nt-hMLKL^F148A, -hMLKL^C86A/L89A/D94A, and Nt-hMLKL^R145A/R146A/F148A/M150A were generated using the Site-directed Mutagenesis Kit (EZ004S, Enzynomics, S. Korea). These constructs were subcloned into pBT7-N-His and pET-15b plasmid vectors. E. coli BL21 cells transformed with the cloned expression vectors were cultured in LB medium and supplemented with 100 μg/mL ampicillin until an OD at 600 nm of 0.5–0.6 was reached. The cultures were induced by 1 mM IPTG (367-93-1, Sigma-Aldrich). The cells were lysed and centrifuged. The clear supernatants were subjected to Ni-NTA affinity chromatography (175018169, QIAGEN, Hilden, Germany). Plasmids encoding mMLKL (1–464)–gyrase fusion constructs were kindly provided by Prof. […]
The interactions of Wt-hMLKL, Wt-mMLKL, Nt-mMLKL, Nt, and Ct-hMLKL proteins with Re-APO or Ox-APO were detected through SPR analysis using Biacore™ T200 (Cytiva, Marlborough, MA, USA). […] Sensorgrams were recorded and analyzed in real-time using the control software in the BIAcore T200 system. All data were analyzed using the BIA evaluation software (Cytiva).

p-MLKL oligomer = assay: MLKL oligomerization Western blot (non-reducing/reducing) in THP-1 cells; type: cell-based, human; settings: THP-1, TBZ, 8 h; for tetramerization and octamerization of p-MLKL: non-reducing conditions; for phosphorylation levels of RIP1, RIP3 and MLKL: reducing conditions
Experimental: Fig. 2 Effect of redox-sensitive APO on MLKL oligomerization. A Chemical structure of APO. APO undergoes auto-oxidation to form the oxidized form (Ox-APO), while the addition of DTT preserves the reduced form (Re-APO). The red highlights indicate the sites where APO loses hydrogen and electrons during the oxidation process. B Real-time 1D ^1H NMR spectra showing the degree of oxidation of APO. APO was dissolved from its powdered form in DPBS and incubated at 25 °C for 36 h. Real-time 1D ^1H NMR spectra were measured at a 2 h intervals after filtration through a 0.2 μm syringe filter to remove precipitates. […] C MLKL oligomerization is inhibited by APO. THP-1 cells were treated with TBZ and Re-APO or Ox-APO for 8 h. Western blot analysis of WCLs was performed under non-reducing and reducing conditions using the indicated antibodies. Percentage changes of p-MLKL oligomer band relative to GAPDH were shown. The p value for MLKL oligomer band intensity was calculated based on the average intensity of the tetramer and octamer bands. Octa octamer, Tetra tetramer, Mono monomer. Mean ± SEM (n = 3). **p < 0.001, ns not significant, one-way ANOVA. D THP-1 cells were treated with TBZ and Ox-APO or Re-APO for 8 h and then stained with DAPI and MLKL for confocal microscopy. In the intensity graph, green indicates MLKL. The signal intensity of MLKL fluorescence from the plasma membrane to the cytosol was measured using FluoView FV1000 software. Mean ± SEM (n > 100). **p < 0.01, ***p < 0.001, one-way ANOVA. E J774A.1 mouse monocytic cells were treated with TBZ and 20 μM Re-APO or Ox-APO for 8 h. Western blot analysis of WCLs was performed under non-reducing and reducing conditions using the indicated antibodies.
The cells were harvested and lysed in 1× RIPA buffer (R4100-010, GenDEPOT, Katy, TX, USA) containing protease (P3100-001, GenDEPOT) and phosphatase (1862495, Thermo Fisher Scientific) inhibitors. WCLs were then centrifuged at 20,000×g for 30 min at 4 °C and subjected to non-reducing or reducing 8–12% SDS-PAGE gel electrophoresis. The membrane was blocked with 5% non-fat milk in TBS and probed with antibodies. Antibodies to hMLKL (14993S), mMLKL (97705S), phospho-hMLKL (Ser358) (91689S), phospho-mMLKL (Ser345) (37333S), phospho-hRIP1 (Ser166) (65746S), mRIP1 (3493S), phospho-mRIP1 (Ser321) (38662S), phospho-hRIP3 (Ser227) (93654), mRIP3 (95702S), p-mRIP3 (Thr231/Ser232) (91702S), and LDH (2012S) (Cell Signaling Technology, Danvers, MA, USA), and GAPDH (LF-PA0018, Abfrontier, S. Korea), hRIP1 (ab72139, Abcam, Cambridge, UK), hRIP3 (sc-135170, Santa Cruz Biotechnology, Dallas, TX, USA), HMGB1 (ab78923, Abcam), and LAMP1 (ab24170, Abcam) antibodies were used.

MLKL = assay: Confocal microscopy of MLKL membrane translocation; type: cell-based, human; settings: THP-1, TBZ, 8 h
Experimental: THP-1 cells were washed and fixed in 4% paraformaldehyde and incubated in 0.25% Triton X-100 for 10 min, blocked for 30 min with 5% BSA-PBS, and stained with the MLKL and CD36 (ab252922, Abcam) antibody. The nuclei were stained with DAPI. Confocal microscopy (FV1000, Olympus, Tokyo, Japan) was used for image analysis. The signal intensity was measured using FluoView FV1000 software.

T1 sequence (Q8NB16 183-471): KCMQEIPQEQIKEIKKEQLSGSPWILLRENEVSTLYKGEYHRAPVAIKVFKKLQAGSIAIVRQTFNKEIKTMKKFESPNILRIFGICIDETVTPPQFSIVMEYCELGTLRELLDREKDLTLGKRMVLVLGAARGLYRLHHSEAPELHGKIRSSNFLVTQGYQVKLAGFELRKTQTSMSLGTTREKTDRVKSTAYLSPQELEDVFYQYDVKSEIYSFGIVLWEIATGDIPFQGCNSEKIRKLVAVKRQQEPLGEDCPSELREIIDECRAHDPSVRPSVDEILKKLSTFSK

Structure (SMILES): CN1CCc2cccc3c4c(cc1c23)C=CC(=O)C4=O [Ox-APO]
- binding in SPR (Ct-hMLKL (183–471)): no detectable binding
- tetramerization and octamerization of p-MLKL (p-MLKL oligomer): strongly inhibited
- phosphorylation levels of RIP1, RIP3 and MLKL (p-MLKL oligomer): little effect
- inhibition of migration of p-MLKL to the cell membrane (MLKL; same concentration): more effective than Re-APO

Structure (SMILES): CN1CCc2cccc3c2C1Cc1ccc(O)c(O)c1-3 (centres unmarked) [Re-APO]
- binding in SPR (Ct-hMLKL (183–471)): no detectable binding
- tetramerization and octamerization of p-MLKL (p-MLKL oligomer): less effective than Ox-APO
- phosphorylation levels of RIP1, RIP3 and MLKL (p-MLKL oligomer): little effect

Structure (SMILES): CN1CCc2cccc3c2[C@@H]1Cc1ccc(O)c(O)c1-3 [S62, (6aS)-6-methyl-5,6,6a,7-tetrahydro-4H-dibenzo[de,g]quinoline-10,11-diol]
- level of MLKL in the cell membrane (MLKL): profoundly decreased

From publication PMC12518639, “Apomorphine is a novel necroptosis inhibitor targeting mixed lineage kinase domain-like protein oligomerization” (Cell Death Discovery, 2025)
